{
  "source": "patent US6710083B2",
  "about": "“Method of treating palmar and plantar fibromatosis” (priority 2002, dated 2004)",
  "key": {"[1]": {"experiment": "Side effects, tolerability and laboratory values during the clinical treatment of palmar fibromatosis patients", "type": "in vivo, human", "protocol": "(§1) Example 1 to 3 illustrate clinical effectiveness of the above described treatment method. An initial treatment and a maintenance treatment as described above were prescribed to the patients. It is noted that the patients described in the Examples were in the average weight range, therefore, an average dosage of 40 mg was used.\n(§2) The patient was treated with orally administering Accutane® (Hoffmann-La Roche Inc., Nutley, New Jersey) about 40 mg daily for 14 days. Then the dosage was decreased to a maintenance dosage of 40 mg about twice a week for twelve months.\n(§3) The patient was treated with orally administering Accutane® about 40 mg daily for 14 days. Then the dosage was decreased to 40 mg about twice a week for eight months.\n(§4) The patient was placed on Accutane® 40 mg daily for two weeks."}, "[2]": {"tested_on": "palmar fibromatosis (Dupuytren's contracture)", "experiment": "Clinical treatment of patients with palmar fibromatosis (Dupuytren's contracture) with oral Accutane: initial dosage then maintenance dosage", "type": "in vivo, human", "protocol": "as §1, §2, §3, §4"}, "[3]": {"details": "Example 2 patient, eight months of therapy"}},
  "data": [
    {"molecule": "CC1=C(/C=C/C(C)=C/C=C/C(C)=C\\C(=O)O)C(C)(C)CCC1", "note": "[Accutane, 13-cis retinoic acid]", "values": [
      {"measurement": "adverse side effects", "setting": "[1]; Example 1 patient, 40 mg daily 14 days, then 40 mg about twice a week for twelve months", "result": "No adverse side effects were noted other than drying of lips"},
      {"measurement": "blood chemistries", "setting": "[1]; Example 1 patient, low maintenance dosage", "result": "remained normal"},
      {"measurement": "laboratory abnormality", "setting": "[1]; [3]", "result": "No laboratory abnormality was observed"},
      {"measurement": "musculoskeletal pain", "setting": "[1]; [3]", "result": "some musculoskelatal pain, which diminished after the third month of the treatment"},
      {"measurement": "tolerability", "setting": "[1]; Example 2 patient, lower maintenance dosage", "result": "well tolerated"},
      {"measurement": "serious adverse side effects", "setting": "[1]; patients diagnosed with Dupytren's contracture, described treatment (general statement)", "result": "no serious adverse side effects were observed"},
      {"measurement": "dimple overhead of the third methocarpal bone", "setting": "[2]; Example 1 patient, both hands, after twelve months of therapy", "result": "disappeared"},
      {"measurement": "fibrotic band, right hand", "setting": "[2]; Example 1 patient, middle finger, 4 mm before treatment, 40 mg daily 14 days, then 40 mg about twice a week, after twelve months", "result": 2, "unit": "mm"},
      {"measurement": "fibrotic band, left hand", "setting": "[2]; Example 1 patient, middle finger, oral 40 mg daily for 14 days, then 40 mg about twice a week, after twelve months", "result": "completely disappeared"},
      {"measurement": "pain and tenderness in the flexor tendon area of the hands", "setting": "[2]; Example 1 patient, patient-described, after twelve months of therapy", "result": "completely abated"},
      {"measurement": "range of fixed flexion of the left middle finger", "setting": "[2]; Example 1 patient, 7 degree before treatment as printed, after twelve months of therapy", "result": "none"},
      {"measurement": "fixed flexion of the right middle finger", "setting": "[2]; Example 1 patient, fixed 15 degree before treatment as printed, after twelve months of therapy", "result": 3, "unit": "degree"},
      {"measurement": "fibrotic ridge of the left hand", "setting": "[2]; Example 2 patient, advanced disease, 40 mg daily 14 days, then 40 mg about twice a week for eight months", "result": "reduced in scope and size"},
      {"measurement": "ring finger's disposition from the flexed position", "setting": "[2]; Example 2 patient, left hand, about 90 degree before treatment, eight months of therapy", "result": "about 70 degree"},
      {"measurement": "tenderness of the left hand caused by the contracture", "setting": "[2]; Example 2 patient, patient-reported, eight months of therapy", "result": "less tender"},
      {"measurement": "tenderness in the flexor tendon area", "setting": "[2]; Example 3 patient, patient-described, nine months of treatment", "result": "less tenderness"},
      {"measurement": "thickness of the fibrotic band", "setting": "[2]; Example 3 patient, right hand, 40 mg daily two weeks, then 40 mg about twice a week for nine months", "result": "reduced"},
      {"measurement": "restriction of extension of the ring finger", "setting": "[2]; Example 3 patient, right hand, nine months of treatment", "result": "lessened"},
      {"measurement": "deflection of the right hand ring finger", "setting": "[2]; Example 3 patient, 30 degree before treatment, nine months of treatment", "result": 20, "unit": "degree"},
      {"measurement": "further progression of the contracture", "setting": "[2]; patients with either early stage disease or advanced conditions (general statement)", "result": "inhibits further progression of the contracture"}
    ]}
  ]
}
